# Data as given in patent publication US20250325524A1, “COMPOSITIONS AND METHODS FOR TREATING RENAL INJURY” (CASE WESTERN RESERVE UNIVERSITY, priority 2018, published 2025).
# How the values were obtained:
# [1] = test system: mice; experiment: toxicity after IP injection into mice
# [2] = test system: endogenous PGE2 levels in kidney tissue; experiment: endogenous PGE2 levels in kidney tissue after i.p. injection; format: in vivo; conditions: mice
# Protocol: […] Next, the kidney tissues (˜20 mg) were homogenized in 500 μL of cold PBS containing indomethacin (10 μg/mL) using a tissue homogenizer. The suspension was sonicated in an ice-water bath for 1 minute using cycles of 10 seconds of sonication with 10 seconds of cooling, and they were then centrifuged for 10 minutes at 12,000 rpm. The supernatant was collected for PGE2 assay. Protein concentrations were determined by BCA assay (23225; Thermo Scientific). The PGE2 level in the supernatant was measured using a PGE2 ELISA Kit (SKGE004B; R&D Systems) in triplicate. PGE2 levels were expressed as ng PGE2/mg protein.
# [3] = test system: mice with ischemic AKI; experiment: renal ischemia-reperfusion injury model: renal function (serum creatinine, NGAL, KIM-1); format: in vivo; conditions: IRI-30 min, 24 hours reperfusion
# Protocol: (§1) Mice were anesthetized with isoflurane using a vaporizer and placed on a heating pad to maintain their body temperature at 37° C. Both renal arteries were identified through dorsal incisions and clamped for 20, 30, 35, or 37 minutes. Reperfusion was confirmed visually upon release of the clamps. Surgical wounds were closed, and mice were administered 1 mL of saline i.p. The mice were kept in a warm incubator until they regained consciousness and were allowed to recover with ad libitum access to food and water. […] Serum and kidney tissue were collected 24 hours after renal IRI.
# Renal function was assessed by determining the serum levels of creatinine (KB02-H1; Arbor Assays), Lipocalin-2 (NGAL; MLCN20; R&D Systems), and kidney injury molecule-1 (KIM-1; MKM100; R&D Systems) after reperfusion for 24 h.
# [4] = test system: mice with ischemic AKI; experiment: as above; format: in vivo; conditions: IRI mice, single pre-IRI dose
# [5] = test system: PGE2 production by cell lines; experiment: PGE2 production by cell lines; format: cell-based
# [6] = test system: HMGB1 and proinflammatory cytokines; experiment: renal IRI model: HMGB1 and cytokine levels; format: in vivo; conditions: mice
# Protocol: as §1
# Inflammatory cytokine mRNA and protein levels were measured by real-time PCR and ELISA, respectively. Kidney tissue and serum were harvested after reperfusion for 24 h. Total RNA was extracted from frozen kidney tissue using TRIzol reagent (15596018; Invitrogen), according to the manufacturer's protocol. RNA was converted to cDNA using oligo-dT primers. IL-17, TNF-α, and […] levels were determined by real-time PCR with SYBR green PCR Master Mix and the primers listed in Table 1. For ELISA, frozen kidney tissues were homogenized in phosphate buffer. Serum IL-17 (M1700; R&D Systems), TNF-α (MTAOOB; R&D Systems), and IL-10β (MLBOOC; R&D Systems) were measured using commercial ELISA kits according to the manufacturer's instructions.
# [7] = 5 mg/kg 1 hour before, immediately after, and 12 hours after IRI, vs IRI-vehicle
# [8] = real-time PCR and ELISA, 3 doses 5 mg/kg
# [9] = real-time PCR at POD1, vs IRI-vehicle
smiles,measurement,setting,value
CCCC[S+]([O-])c1sc2nc(-c3cccs3)cc(-c3ccccc3)c2c1N (centres unmarked) [SW033291],toxicity,[1]; IP into mice at 0.3 μmole/per mouse twice daily for 21 days,no toxicity
same,immediate toxicity over 24 hours,[1]; IP into mice at 0.6 μmole/per mouse,no immediate toxicity
same,immediate toxicity over 24 hours,[1]; IP into mice at 1.2 μmole/per mouse,no immediate toxicity
same,"level of PGE2 in kidney tissue, time course","[2]; 5 mg/kg i.p., 1 and 3 hours",peaked at 1 hour at nearly twice as high as at baseline
same,endogenous PGE2 levels in kidney tissue,"[2]; 3 hours after i.p. 2.5 or 5 mg/kg, vs vehicle","in dose-dependent fashion, upregulated"
same,serum KIM-1,[3]; [7],significantly reducing
same,serum NGAL,[3]; [7],significantly reducing
same,serum creatinine,[3]; [7],significantly reducing
same,"renal protection from IRI (serum NGAL, creatinine, KIM-1)",[3]; 3 doses of 5 mg/kg,markedly protected kidney from IRI
same,induction of KIM-1 (time course),[4],notably effective blockade of induction
same,induction of creatinine (time course),[4],notably effective blockade of induction
same,reduction of peak induction of NGAL,[4]; peak at 12 hours,20%
same,PGE2 production by cell lines,[5],increase PGE2 production by cell lines
same,IL-1B protein,"[6]; ELISA, 3 doses 5 mg/kg",reductions
same,reduction of HMGB1 protein level compared to the IRI-vehicle group,"[6]; kidney tissue, western blot, 3 doses 5 mg/kg",30%
same,induction of IL-17,[6]; [8],blockade of induction
same,induction of TNF-α,[6]; [8],blockade of induction
same,IL-24 mRNA,[6]; [9],significantly induces
same,anti-inflammatory cytokine IL-4 mRNA,[6]; [9],significantly induces
same,anti-inflammatory cytokine IL-10 mRNA,[6]; [9],significantly induces
